Results published in patent US10028961B2, “Therapeutically active compounds and their methods of use” (AGIOS PHARMACEUTICALS, INC., priority 2013, dated 2018).

Legend:
[1] = target: IDH1-R132C homodimer enzyme (Homo sapiens (Human), UniProt O75874, R132C); test: In vitro assay IDH1-R132C homodimer, NADPH depletion assay with NADPH/NADP preincubation; format: biochemical; details: 5 uM NADPH and 28.75 uM NADP, read-out: IDH R132C NADPH/NADP IC50
Description: The following describes the experimental procedures that can be used to obtain data on columns 3 and 5 of Table 5.
A test compound is prepared as 10 mM stock in DMSO and diluted to 50× final concentration in DMSO, for a 50 μl reaction mixture. IDH enzyme activity converting alpha-ketoglutarate to 2-hydroxyglutaric acid is measured using a NADPH depletion assay. In the assay the remaining cofactor is measured at the end of the reaction with the addition of a catalytic excess of diaphorase and resazurin, to generate a fluorescent signal in proportion to the amount of NADPH remaining. […] The reaction is started with the addition of 10 μl of Substrate Mix ([…], 5 mM alpha-ketoglutarate, in Assay Buffer) and the mixture is incubated for 60 minutes at room temperature.
The concentration of alpha-ketoglutarate in the Substrate Buffer is 1 mM.

[2] = test system: HT1080 cells; test: Cellular assay for IDH1m R132C inhibitors, 2-HG by LC-MS in HT1080 cells; format: cell-based; details: Homo sapiens, HT-1080
How it was run: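 2-HG levels were measured by LC-MS in culture medium sampled 48 h after compound addition (0.2% DMSO) to HT1080 cells seeded overnight at 5000 cells/well. A CellTiter-Glo luminescence read at 72 h gave cell viability.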

[3] = target: T1, IDH2 R140Q (Homo sapiens (Human), UniProt P48735, R140Q); test: In vitro assay for IDH2m R140Q inhibitors, cofactor depletion assay; format: biochemical; details: IDH2 R140Q enzyme
T1 sequence (P48735 40-452 R140Q): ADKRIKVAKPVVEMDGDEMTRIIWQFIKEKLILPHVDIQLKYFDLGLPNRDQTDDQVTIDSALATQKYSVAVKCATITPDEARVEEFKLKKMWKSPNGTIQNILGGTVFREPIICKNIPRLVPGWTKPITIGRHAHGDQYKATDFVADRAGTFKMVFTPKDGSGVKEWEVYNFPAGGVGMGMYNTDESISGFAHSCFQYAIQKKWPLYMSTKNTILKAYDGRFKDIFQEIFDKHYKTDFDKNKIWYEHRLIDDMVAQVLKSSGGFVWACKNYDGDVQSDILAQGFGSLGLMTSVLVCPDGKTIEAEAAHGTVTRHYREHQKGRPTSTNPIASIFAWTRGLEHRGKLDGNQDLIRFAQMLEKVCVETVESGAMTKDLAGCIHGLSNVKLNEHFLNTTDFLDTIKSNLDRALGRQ
How it was run: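 Remaining cofactor measured fluorimetrically: diaphorase/resazurin Stop Mix […], halting the reaction. Before that, mutant enzyme and compound sat 1 h at RT, then substrate mix (4 μM NADPH, 1.6 mM α-KG) was added for 16 h at RT.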

[4] = test system: U87MG pLVX-IDH2 R140Q-neo cells; test: U87MG pLVX-IDH2 R140Q-neo cell based assay, 2-HG by LC-MS; details: Homo sapiens, U-87 MG
[5] = target: IDH1-R132H homodimer enzyme (Homo sapiens (Human), UniProt O75874, R132H); test: In vitro assay IDH1-R132H homodimer, NADPH depletion assay with NADPH/NADP preincubation; format: biochemical; details: 5 μM NADPH and 37.5 μM NADP
Chain of IDH1-R132H homodimer enzyme (O75874 whole entry R132H): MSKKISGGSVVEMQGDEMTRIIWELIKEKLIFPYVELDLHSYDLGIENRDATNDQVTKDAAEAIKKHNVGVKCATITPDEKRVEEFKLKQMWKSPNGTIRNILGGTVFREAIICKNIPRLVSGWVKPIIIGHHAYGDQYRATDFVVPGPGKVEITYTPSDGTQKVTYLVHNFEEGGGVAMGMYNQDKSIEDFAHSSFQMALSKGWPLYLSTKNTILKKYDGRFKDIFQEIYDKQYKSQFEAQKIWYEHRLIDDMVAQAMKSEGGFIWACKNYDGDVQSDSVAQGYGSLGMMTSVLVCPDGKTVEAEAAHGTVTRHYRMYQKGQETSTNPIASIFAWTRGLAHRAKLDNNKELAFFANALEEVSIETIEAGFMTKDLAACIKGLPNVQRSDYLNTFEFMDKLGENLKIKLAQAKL
How it was run: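 Compounds were added from DMSO at 50× final concentration, and the mutant enzyme was incubated 60 min at room temperature after starting with a substrate mix holding NADPH and 5 mM alpha-ketoglutarate. Residual cofactor, read by fluorescence after excess diaphorase and resazurin, reflects enzyme turnover.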

[6] = target: T1, IDH2 R140Q; test: In vitro assay for IDH2m R140Q inhibitors, cofactor depletion assay, 16 hr preincubation with NADPH/NADP; format: biochemical; details: read-out: IDH2 R140Q 16 hr NADPH/NADP IC50; 16 hrs preincubation with enzyme, 5 uM NADPH and 750 uM NADP

Chain of IDH1-R132C homodimer enzyme (O75874 whole entry R132C): as the sequence (O75874 whole entry R132H) above, with H132C counted along it

Fc1cc(F)cc(Nc2nc(NC3CC(F)(F)C3)nc(-n3ccc(C(F)(F)F)n3)n2)c1 [Compound 106]
IC50 [1]: < 50 nM
IC50 [2]: 100 to 1000 nM
IC50 [3]: < 50 nM
IC50 [4]: < 50 nM
IC50 [5]: < 50 nM

CCC(Nc1nc(NC(CC)C2CC2)nc(-c2cccc(Cl)n2)n1)C1CC1 (centres unmarked) [Compound 110]
IC50 [2]: 50 to 100 nM
IC50 [3]: < 50 nM
IC50 [6]: < 50 nM
IC50 [4]: < 50 nM
IC50 [5]: 50 to 100 nM

FC1(F)CCC(Nc2nc(NC3CCC(F)(F)C3)nc(-c3cccc(Cl)n3)n2)C1 (centres unmarked) [Compound 113]
IC50 [2]: < 50 nM
IC50 [3]: < 50 nM
IC50 [6]: < 50 nM
IC50 [4]: < 50 nM
IC50 [5]: < 50 nM

CC(C)(C)Nc1nc(Nc2cccc(C#N)c2)nc(-c2cccc(C(F)(F)F)n2)n1 [Compound 117]
IC50 [2]: > 1000 nM
IC50 [3]: < 50 nM
IC50 [6]: < 50 nM
IC50 [4]: < 50 nM

N#CC1(c2cc(Nc3nc(NC4CCC(F)(F)C4)nc(-c4cccc(Cl)n4)n3)ccn2)CC1 (centres unmarked) [Compound 127]
IC50 [2]: 50 to 100 nM
IC50 [3]: < 50 nM
IC50 [6]: < 50 nM
IC50 [4]: < 50 nM
IC50 [5]: < 50 nM

FC1(F)CCC(Nc2nc(NC3CCC(F)(F)CC3)nc(-c3cncc(C(F)(F)F)n3)n2)CC1 [Compound 160]
IC50 [1]: 100 to 1000 nM
IC50 [2]: < 50 nM
IC50 [3]: < 50 nM
IC50 [4]: < 50 nM
IC50 [5]: 50 to 100 nM

FC1(F)CC(Nc2nc(NC3CC(F)(F)C3)nc(-c3cncc(C(F)(F)F)n3)n2)C1 [Compound 161]
IC50 [1]: 50 to 100 nM
IC50 [2]: < 50 nM
IC50 [3]: < 50 nM
IC50 [4]: < 50 nM
IC50 [5]: < 50 nM

C[C@@H](Nc1nc(Nc2ccnc(C3(C#N)CC3)c2)nc(-c2cccc(Cl)n2)n1)C1CC1 [Compound 167]
IC50 [3]: < 50 nM
IC50 [6]: < 50 nM
IC50 [4]: < 50 nM
IC50 [5]: < 50 nM

N#CC1(c2cc(Nc3nc(NC4CC(F)(F)C4)nc(-c4cccc(C(F)(F)F)n4)n3)ccn2)CC1 [Compound 168]
IC50 [1]: 50 to 100 nM
IC50 [2]: < 50 nM
IC50 [3]: < 50 nM
IC50 [4]: < 50 nM
IC50 [5]: < 50 nM

FC1(F)CCC(Nc2nc(Nc3ccnc(C(F)(F)F)c3)nc(-c3cccc(C(F)(F)F)n3)n2)C1 (centres unmarked) [Compound 178]
IC50 [3]: < 50 nM
IC50 [6]: < 50 nM
IC50 [4]: < 50 nM
IC50 [5]: 50 to 100 nM

N#CC1(c2cc(Nc3nc(NC4CCC(F)(F)CC4)nc(-c4cccc(C(F)(F)F)n4)n3)ccn2)CC1 [Compound 189]
IC50 [1]: 100 to 1000 nM
IC50 [2]: 100 to 1000 nM
IC50 [3]: < 50 nM
IC50 [4]: < 50 nM
IC50 [5]: 100 to 1000 nM

C[C@@H](Nc1nc(NC(C2CC2)C2CC2)nc(-c2cccc(C(F)(F)F)n2)n1)C1CC1 [Compound 193]
IC50 [3]: < 50 nM
IC50 [6]: < 50 nM
IC50 [4]: < 50 nM
IC50 [5]: 50 to 100 nM

CC(Nc1nc(N[C@H](C)C2CC2)nc(-c2cccc(C(F)(F)F)n2)n1)C(F)(F)F (some centres unmarked) [Compound 203]
IC50 [2]: < 50 nM
IC50 [3]: < 50 nM
IC50 [6]: < 50 nM
IC50 [4]: < 50 nM
IC50 [5]: < 50 nM

CC(C)(O)CNc1nc(Nc2cc(F)cc(C#N)c2)nc(-c2cccc(C(F)(F)F)n2)n1 [Compound 244]
IC50 [2]: > 1000 nM
IC50 [3]: < 50 nM
IC50 [6]: 50 to 100 nM
IC50 [4]: < 50 nM

CC(CC#N)Nc1nc(Nc2ccnc(C(C)(F)F)c2)nc(-c2cccc(C(F)(F)F)n2)n1 (centres unmarked) [Compound 250]
IC50 [3]: 100 to 1000 nM
IC50 [6]: 50 to 100 nM
IC50 [4]: < 50 nM
IC50 [5]: 100 to 1000 nM

FC1(F)CCC(Nc2nc(NC3CCOCC3)nc(-c3cccc(C(F)(F)F)n3)n2)CC1 [Compound 255]
IC50 [2]: 100 to 1000 nM
IC50 [6]: 100 to 1000 nM
IC50 [5]: 100 to 1000 nM

O=C(c1ccccc1)N1CCC(Nc2nc(NC3CCC(F)(F)C3)nc(-c3cccc(C(F)(F)F)n3)n2)C1 (centres unmarked) [Compound 263]
IC50 [2]: 100 to 1000 nM
IC50 [6]: 100 to 1000 nM
IC50 [5]: 100 to 1000 nM

CS(=O)(=O)N1CCC(Nc2nc(NC3CCC(F)(F)CC3)nc(-c3cccc(C(F)(F)F)n3)n2)CC1 [Compound 266]
IC50 [2]: > 1000 nM
IC50 [6]: 100 to 1000 nM
IC50 [5]: > 1000 nM

C[C@@H](Nc1nc(N[C@H](C)C2CC2)nc(-c2nccc(C(F)(F)F)n2)n1)C1CC1 [Compound 268]
IC50 [2]: 100 to 1000 nM
IC50 [3]: 50 to 100 nM
IC50 [6]: 50 to 100 nM
IC50 [4]: 50 to 100 nM
IC50 [5]: > 1000 nM

CC(=O)N1CCC(Nc2nc(NC3CCC(F)(F)CC3)nc(-c3cccc(C(F)(F)F)n3)n2)CC1 [Compound 273]
IC50 [2]: > 1000 nM
IC50 [6]: > 1000 nM
IC50 [5]: > 1000 nM

FC1(F)CCC(Nc2nc(NC3CCN(Cc4ccccc4)C3)nc(-c3cccc(C(F)(F)F)n3)n2)C1 (centres unmarked) [Compound 280]
IC50 [2]: > 1000 nM
IC50 [6]: 100 to 1000 nM
IC50 [5]: > 1000 nM

FC1(F)CCC(Nc2nc(Nc3ccnc(C(F)(F)F)c3)nc(-c3cncc(C(F)(F)F)n3)n2)CC1 [Compound 389]
IC50 [1]: 100 to 1000 nM
IC50 [2]: 100 to 1000 nM
IC50 [3]: < 50 nM
IC50 [4]: < 50 nM
IC50 [5]: 50 to 100 nM

FC1(F)CC[C@H](Nc2nc(Nc3ccnc(C(F)(F)F)c3)nc(-c3cncc(C(F)(F)F)n3)n2)C1 [Compound 391]
IC50 [1]: 100 to 1000 nM
IC50 [2]: 100 to 1000 nM
IC50 [3]: < 50 nM
IC50 [4]: < 50 nM
IC50 [5]: 50 to 100 nM

N#CC1(c2cc(Nc3nc(NC4CC(F)(F)C4)nc(-c4cncc(C(F)(F)F)n4)n3)ccn2)CC1 [Compound 401]
IC50 [1]: 100 to 1000 nM
IC50 [2]: 100 to 1000 nM
IC50 [3]: < 50 nM
IC50 [4]: < 50 nM
IC50 [5]: < 50 nM
